According to the supplement of paper PMC4932681:

How the values were obtained:
[1] = test system: T-47D Tam1; assay: drug sensitivity score (DSS) (DSS (dimensionless)); higher = more sensitive; extreme values may be limits of the assay; conditions: 4-OH-tamoxifen in medium 1 µM; 72 h
Procedure, shortened: (§1)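 CellTiter-Glo viability was the readout, taken on a PHERAstar and normalised to vehicle-only and positive controls. It was measured after breast cancer cell lines and their resistant derivatives spent 72 h at 37 °C in 384-well plates containing library drugs at five concentrations spanning a 10 000-fold range, with 1 μM of the selecting drug in the medium of resistant lines. From logistic dose–response fits in the Breeze pipeline came drug sensitivity score, relative IC50 (curve midpoint) and top-dose inhibition.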

[2] = test system: BT-474; assay: as above; conditions: 72 h
Procedure, shortened: as §1

[3] = test system: T-47D; assay: as above; conditions: 72 h
Procedure, shortened: as §1

[4] = test system: ZR-75-1 Tam1; assay: as above; conditions: 4-OH-tamoxifen in medium 1 µM; 72 h
Procedure, shortened: as §1

[5] = test system: ZR-75-1 Tam2; assay: as above; conditions: 4-OH-tamoxifen in medium 1 µM; 72 h
Procedure, shortened: as §1

[6] = test system: BT-474 Tam1; assay: as above; conditions: 4-OH-tamoxifen in medium 1 µM; 72 h
Procedure, shortened: as §1

[7] = test system: MCF-7; assay: as above; conditions: 72 h
Procedure, shortened: as §1

[8] = test system: T-47D Tam2; assay: as above; conditions: 4-OH-tamoxifen in medium 1 µM; 72 h
Procedure, shortened: as §1

[9] = test system: MCF-7 Tam1; assay: as above; conditions: 4-OH-tamoxifen in medium 1 µM; 72 h
Procedure, shortened: as §1

[10] = test system: ZR-75-1; assay: as above; conditions: 72 h
Procedure, shortened: as §1

[11] = test system: BT-474 Tam2; assay: as above; conditions: 4-OH-tamoxifen in medium 1 µM; 72 h
Procedure, shortened: as §1

[12] = test system: T-47D Tam1; assay: relative IC50 (midpoint of fitted logistic curve, plateau may be below 50% inhibition; CellTiter-Glo viability); higher = less potent; conditions: 4-OH-tamoxifen in medium 1 µM; 72 h
Procedure, shortened: as §1

[13] = test system: BT-474; assay: as above; conditions: 72 h
Procedure, shortened: as §1

[14] = test system: T-47D; assay: as above; conditions: 72 h
Procedure, shortened: as §1

[15] = test system: ZR-75-1 Tam1; assay: as above; conditions: 4-OH-tamoxifen in medium 1 µM; 72 h
Procedure, shortened: as §1

[16] = test system: ZR-75-1 Tam2; assay: as above; conditions: 4-OH-tamoxifen in medium 1 µM; 72 h
Procedure, shortened: as §1

[17] = test system: BT-474 Tam1; assay: as above; conditions: 4-OH-tamoxifen in medium 1 µM; 72 h
Procedure, shortened: as §1

[18] = test system: MCF-7; assay: as above; conditions: 72 h
Procedure, shortened: as §1

[19] = test system: T-47D Tam2; assay: as above; conditions: 4-OH-tamoxifen in medium 1 µM; 72 h
Procedure, shortened: as §1

[20] = test system: MCF-7 Tam1; assay: as above; conditions: 4-OH-tamoxifen in medium 1 µM; 72 h
Procedure, shortened: as §1

[21] = test system: ZR-75-1; assay: as above; conditions: 72 h
Procedure, shortened: as §1

[22] = test system: BT-474 Tam2; assay: as above; conditions: 4-OH-tamoxifen in medium 1 µM; 72 h
Procedure, shortened: as §1

relative IC50 [12] [µM]	relative IC50 ([13]; 4-OH-tamoxifen in medium 0 µM) [µM]	relative IC50 ([13]; 4-OH-tamoxifen in medium 1 µM) [µM]	relative IC50 ([14]; 4-OH-tamoxifen in medium 0 µM) [µM]	relative IC50 ([14]; 4-OH-tamoxifen in medium 1 µM) [µM]	relative IC50 [17] [µM]	relative IC50 ([18]; 4-OH-tamoxifen in medium 0 µM) [µM]	relative IC50 [19] [µM]	relative IC50 [20] [µM]	relative IC50 [22] [µM]	Structure (SMILES)	drug sensitivity score [1]	drug sensitivity score ([2]; 4-OH-tamoxifen in medium 0 µM)	drug sensitivity score ([2]; 4-OH-tamoxifen in medium 1 µM)	drug sensitivity score ([3]; 4-OH-tamoxifen in medium 0 µM)	drug sensitivity score ([3]; 4-OH-tamoxifen in medium 1 µM)	drug sensitivity score [4]	drug sensitivity score [5]	drug sensitivity score [6]	drug sensitivity score ([7]; 4-OH-tamoxifen in medium 0 µM)	drug sensitivity score ([7]; 4-OH-tamoxifen in medium 1 µM)	drug sensitivity score [8]	drug sensitivity score [9]	drug sensitivity score ([10]; 4-OH-tamoxifen in medium 0 µM)	drug sensitivity score ([10]; 4-OH-tamoxifen in medium 1 µM)	drug sensitivity score [11]	relative IC50 [15] [µM]	relative IC50 [16] [µM]	relative IC50 ([18]; 4-OH-tamoxifen in medium 1 µM) [µM]	relative IC50 ([21]; 4-OH-tamoxifen in medium 0 µM) [µM]	relative IC50 ([21]; 4-OH-tamoxifen in medium 1 µM) [µM]
0.0114	0.0256	0.00367	0.00882	0.00282	0.00459	0.0197	0.0334	0.0746	0.0153	CC(C)C[C@H](NC(=O)[C@H](CCc1ccccc1)NC(=O)CN1CCOCC1)C(=O)N[C@@H](Cc1ccccc1)C(=O)N[C@@H](CC(C)C)C(=O)[C@@]1(C)CO1 [Carfilzomib]	22.7	14.6	28.9	23.1	25.8	12.8	11.8	27.9	17.9	21	17.1	12.4	14	16.4	20.8	0.0471	0.0519	0.0158	0.0317	0.0247
> 10	> 10	> 10	> 10	> 10	> 10	> 10	> 10	> 10	> 10	O=NN(CCCl)C(=O)NCCCl [Carmustine]	0	0	0	0	0	0	0	0	0	0	0	0	0	0	0	> 10	> 10	> 10	> 10	> 10
> 10	> 10	> 10	> 10	> 10	> 10	> 10	> 10	> 10	> 10	CN(C)/N=N/c1[nH]cnc1C(N)=O [Dacarbazine]	0	0	0	0	0	0	0	0	0	0.0214	0	0	0	0	0	> 10	> 10	–	> 10	> 10

Further lines, the compound ahead of its results:

Structure (SMILES)	relative IC50 [12] [µM]	relative IC50 ([13]; 4-OH-tamoxifen in medium 0 µM) [µM]	relative IC50 ([13]; 4-OH-tamoxifen in medium 1 µM) [µM]	relative IC50 ([14]; 4-OH-tamoxifen in medium 0 µM) [µM]	relative IC50 ([14]; 4-OH-tamoxifen in medium 1 µM) [µM]	relative IC50 [17] [µM]	relative IC50 ([18]; 4-OH-tamoxifen in medium 0 µM) [µM]	relative IC50 [19] [µM]	relative IC50 [20] [µM]	relative IC50 [22] [µM]	drug sensitivity score [1]	drug sensitivity score ([2]; 4-OH-tamoxifen in medium 0 µM)	drug sensitivity score ([2]; 4-OH-tamoxifen in medium 1 µM)	drug sensitivity score ([3]; 4-OH-tamoxifen in medium 0 µM)	drug sensitivity score ([3]; 4-OH-tamoxifen in medium 1 µM)	drug sensitivity score [4]	drug sensitivity score [5]	drug sensitivity score [6]	drug sensitivity score ([7]; 4-OH-tamoxifen in medium 0 µM)	drug sensitivity score ([7]; 4-OH-tamoxifen in medium 1 µM)	drug sensitivity score [8]	drug sensitivity score [9]	drug sensitivity score ([10]; 4-OH-tamoxifen in medium 0 µM)	drug sensitivity score ([10]; 4-OH-tamoxifen in medium 1 µM)	drug sensitivity score [11]	relative IC50 [15] [µM]	relative IC50 [16] [µM]	relative IC50 ([18]; 4-OH-tamoxifen in medium 1 µM) [µM]	relative IC50 ([21]; 4-OH-tamoxifen in medium 0 µM) [µM]	relative IC50 ([21]; 4-OH-tamoxifen in medium 1 µM) [µM]
O=C(O)CCCc1ccc(N(CCCl)CCCl)cc1 [Chlorambucil]	> 10	> 10	> 10	> 10	> 10	> 10	> 10	> 10	> 10	> 10	0	0	0	0	0	0	0	0	0	0	0	0	0	0	0	> 10	> 10	> 10	> 10	> 10
N.N.[Cl][Pt][Cl] [Cisplatin]	> 10	> 10	> 10	> 10	> 10	> 10	> 10	> 10	> 10	> 10	0	0	0	0	0	0	0	0	0	0	0	0	0	0	0	> 10	> 10	> 10	> 10	> 10
C[C@@H](Oc1cc(-c2cnn(C3CCNCC3)c2)cnc1N)c1c(Cl)ccc(F)c1Cl [Crizotinib]	> 1	> 1	> 1	> 1	> 1	> 1	> 1	> 1	> 1	> 1	0	0	0	0	0	0	0	0	0	0	0	0	0	0	0	> 1	> 1	> 1	> 1	> 1
CC1=C2C[C@H]3[C@@H](CC=C4C[C@@H](O)CC[C@@]43C)[C@@H]2CC[C@]12O[C@@H]1C[C@H](C)CN[C@H]1[C@H]2C [Cyclopamine]	> 10	> 10	> 10	> 10	> 10	> 10	> 10	> 10	> 10	> 10	0	0	0	0	0	0	0	0	0	0	0	0	0	0	0	> 10	> 10	> 10	> 10	> 10
